Columns and labels:
[1] = target: glucosylceramide synthase (GCS) (Homo sapiens (Human), UniProt Q16739); test: Evaluation of inhibitory activities against GCS (A549 cell lysate, NBD C6-ceramide, HPLC); assay type: biochemical
Protocol: The inhibitory activities of the compounds of the present invention against GCS were evaluated, as follows, according to the method described in the known literature (Hayashi Y et al., A sensitive and reproducible assay to measure the activity of glucosylceramide synthase and lactosylceramide synthase using HPLC and fluorescent substrates, Analytical Biochemistry 345 (2005) 181-186). Ibiglustat, known as a GCS inhibitor, was used as a control.
After the cells attached to the culture dish were washed with phosphate buffered saline (PBS), the cells were scraped off with a cell scraper and then centrifuged (4000 rpm, 3 min, 4 °C) to collect the cells in a 50 ml tube. The cell pellets were suspended in a lysis buffer (50 mM HEPES, pH 7.3, containing 1× the protease/phosphatase inhibitor cocktail), lysed by sonication, and then the lysate was centrifuged (13000 rpm, 10 min, 4° C.). The obtained supernatant was used for the quantitative analysis of proteins. The amount of proteins was measured using the BCA protein assay kit, using bovine serum albumin as a standard.
Enzymatic reactions were initiated by sequentially adding the following reaction materials to a 96 deep-well plate. Thereafter, the enzymatic reactions were performed at 37° C. for 90 minutes.
The enzymatic reactions were stopped by adding 100 μl of chloroform/methanol (2:1, v/v). […] The lower layer (50 μl) was transferred to a new 96 deep-well plate and dried with a reduced concentrator.
Lipids were dissolved in 100 μl of isopropyl alcohol/n-hexane/H2O (55:44:1, v/v/v) and then transferred to a glass vial for HPLC (Agilent, 8004-HP-H/i3u). The sample (100 μl) was automatically loaded onto a normal-phase column (Intersil SIL 150A-5, 4.6×250 mm, GL Sciences, Japan) and then eluted at a flow rate of 2.0 ml/min with isopropyl alcohol/n-hexane/H2O (55:44:1, v/v/v). The fluorescence thereof was measured with a fluorescence detector (Agilent, 1260 FLD Spectra), using 470 nm and 530 nm as excitation and emission wavelengths, respectively.
Data analysis was performed by the following equations.
% Area (Sample)=Area (GlcCer)/[Area (Cer)+Area (GlcCer)]×100%
GCS activity=[Area (Sample)−Area (ibiglustat)]/[Area (DMSO)−Area (ibiglustat)]×100
The obtained % GCS activity data was analyzed with the software GraphPad Prism (Ver 5.01) to calculate the IC50 values.

[2] = tested on: GM1 production in Jurkat cells; test: cells; assay type: cell-based; settings: Homo sapiens, Jurkat, 72 h

Sequence of glucosylceramide synthase (GCS) (Q16739 whole entry): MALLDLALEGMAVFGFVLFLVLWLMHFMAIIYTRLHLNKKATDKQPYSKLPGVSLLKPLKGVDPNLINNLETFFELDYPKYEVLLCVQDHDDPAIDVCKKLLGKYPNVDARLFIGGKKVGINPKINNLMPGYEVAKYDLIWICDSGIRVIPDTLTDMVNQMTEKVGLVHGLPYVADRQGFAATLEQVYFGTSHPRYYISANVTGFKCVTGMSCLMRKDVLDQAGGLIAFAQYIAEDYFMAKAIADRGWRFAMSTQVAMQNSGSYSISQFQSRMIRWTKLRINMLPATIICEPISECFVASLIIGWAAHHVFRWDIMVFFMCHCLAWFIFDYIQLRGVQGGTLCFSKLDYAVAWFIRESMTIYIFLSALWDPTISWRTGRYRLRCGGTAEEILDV

Structure (SMILES) | IC50 [1] [nM] | IC50 [2] [nM]
CCCCOc1ccc(-c2cc3c(cc2F)[C@H](NC(=O)O[C@@H]2CN4CCC2CC4)C(C)(C)C3)cc1Cl [Example 88, (S)-quinuclidin-3-yl((R)-5-(4-butoxy-3-chlorophenyl)-6-fluoro-2,2-dimethyl-2,3-dihydro-1H-inden-1-yl)carbamate] | 0.779 | 21.1
CCCOc1ccc(-c2cc3c(cc2F)[C@H](NC(=O)O[C@@H]2CN4CCC2CC4)C(C)(C)C3)cc1F [Example 91, (S)-quinuclidin-3-yl((R)-6-fluoro-5-(3-fluoro-4-propoxyphenyl)-2,2-dimethyl-2,3-dihydro-1H-inden-1-yl)carbamate] | 0.329 | 10.7
CCc1ccc(-c2cc3c(cc2F)[C@H](NC(=O)O[C@@H]2CN4CCC2CC4)C(C)(C)C3)cc1F [Example 93, (S)-quinuclidin-3-yl((R)-5-(4-ethyl-3-fluorophenyl)-6-fluoro-2,2-dimethyl-2,3-dihydro-1H-inden-1-yl)carbamate] | 0.37 | 5.6
Cc1cc(-c2cc3c(cc2F)[C@H](NC(=O)O[C@@H]2CN4CCC2CC4)C(C)(C)C3)ccc1OC(C)C [Example 94, (S)-quinuclidin-3-yl((R)-6-fluoro-5-(4-isopropoxy-3-methylphenyl)-2,2-dimethyl-2,3-dihydro-1H-inden-1-yl)carbamate] | 0.52 | 12.1
COc1cc(-c2cc3c(cc2F)[C@H](NC(=O)O[C@@H]2CN4CCC2CC4)C(C)(C)C3)ccc1OC(C)C [Example 95, (S)-quinuclidin-3-yl((R)-6-fluoro-5-(4-isopropoxy-3-methoxyphenyl)-2,2-dimethyl-2,3-dihydro-1H-inden-1-yl)carbamate] | 1.14 | 18.2
CC(C)Oc1c(F)cc(-c2cc3c(cc2F)[C@H](NC(=O)O[C@@H]2CN4CCC2CC4)C(C)(C)C3)cc1F [Example 97, (S)-quinuclidin-3-yl((R)-5-(3,5-difluoro-4-isopropoxyphenyl)-6-fluoro-2,2-dimethyl-2,3-dihydro-1H-inden-1-yl)carbamate] | 1.06 | 13
CC1(C)Cc2cc(-c3ccc(OCC4CC4)cc3Cl)c(F)cc2[C@@H]1NC(=O)O[C@@H]1CN2CCC1CC2 [Example 98, (S)-quinuclidin-3-yl((R)-5-(2-chloro-4-(cyclopropylmethoxy)phenyl)-6-fluoro-2,2-dimethyl-2,3-dihydro-1H-inden-1-yl)carbamate] | 0.06 | 0.2
CC1(C)Cc2cc(-c3ccc(OCC4CC4)c(Cl)c3)c(F)cc2[C@@H]1NC(=O)O[C@@H]1CN2CCC1CC2 [Example 99, (S)-quinuclidin-3-yl((R)-5-(3-chloro-4-(cyclopropylmethoxy)phenyl)-6-fluoro-2,2-dimethyl-2,3-dihydro-1H-inden-1-yl)carbamate] | 0.67 | 8.84
CC(C)Oc1c(Cl)cc(-c2cc3c(cc2F)[C@H](NC(=O)O[C@@H]2CN4CCC2CC4)C(C)(C)C3)cc1Cl [Example 100, (S)-quinuclidin-3-yl((R)-5-(3,5-dichloro-4-isopropoxyphenyl)-6-fluoro-2,2-dimethyl-2,3-dihydro-1H-inden-1-yl)carbamate] | 4.58 | 16.2
CC(C)(C)Oc1ccc(-c2cc3c(cc2F)[C@H](NC(=O)O[C@@H]2CN4CCC2CC4)C(C)(C)C3)cc1 [Example 101, (S)-quinuclidin-3-yl((R)-5-(4-(tert-butoxy)phenyl)-6-fluoro-2,2-dimethyl-2,3-dihydro-1H-inden-1-yl)carbamate] | 0.38 | 4.67
CC(C)(C)Oc1ccc(-c2cc3c(cc2F)[C@H](NC(=O)O[C@@H]2CN4CCC2CC4)C(C)(C)C3)c(Cl)c1 [Example 102, (S)-quinuclidin-3-yl((R)-5-(4-(tert-butoxy)-2-chlorophenyl)-6-fluoro-2,2-dimethyl-2,3-dihydro-1H-inden-1-yl)carbamate] | 0.19 | 1.6
CCOc1ccc(-c2cc3c(cc2F)[C@H](NC(=O)O[C@@H]2CN4CCC2CC4)C(C)(C)C3)cc1C [Example 105, (S)-quinuclidin-3-yl((R)-5-(4-ethoxy-3-methylphenyl)-6-fluoro-2,2-dimethyl-2,3-dihydro-1H-inden-1-yl)carbamate] | 0.72 | 8.2
CCCOc1ccc(-c2cc3c(cc2F)[C@H](NC(=O)O[C@@H]2CN4CCC2CC4)C(C)(C)C3)cc1C [Example 106, (S)-quinuclidin-3-yl((R)-6-fluoro-2,2-dimethyl-5-(3-methyl-4-propoxyphenyl)-2,3-dihydro-1H-inden-1-yl)carbamate] | 0.61 | 2.3
Cc1cc(-c2cc3c(cc2F)[C@H](NC(=O)O[C@@H]2CN4CCC2CC4)C(C)(C)C3)ccc1OC(F)F [Example 107, (S)-quinuclidin-3-yl((R)-5-(4-(difluoromethoxy)-3-methylphenyl)-6-fluoro-2,2-dimethyl-2,3-dihydro-1H-inden-1-yl)carbamate] | 0.93 | 16
CC(C)Oc1cc(F)cc(-c2cc3c(cc2F)[C@H](NC(=O)O[C@@H]2CN4CCC2CC4)C(C)(C)C3)c1 [Example 108, (S)-quinuclidin-3-yl((R)-6-fluoro-5-(3-fluoro-5-isopropoxyphenyl)-2,2-dimethyl-2,3-dihydro-1H-inden-1-yl)carbamate] | 1.06 | 31.6
CC(C)COc1cc(F)cc(-c2cc3c(cc2F)[C@H](NC(=O)O[C@@H]2CN4CCC2CC4)C(C)(C)C3)c1 [Example 109, (S)-quinuclidin-3-yl((R)-6-fluoro-5-(3-fluoro-5-isobutoxyphenyl)-2,2-dimethyl-2,3-dihydro-1H-inden-1-yl)carbamate] | 0.69 | 11.5
CC1(C)Cc2cc(-c3cc(F)cc(OCC(F)(F)F)c3)c(F)cc2[C@@H]1NC(=O)O[C@@H]1CN2CCC1CC2 [Example 110, (S)-quinuclidin-3-yl((R)-6-fluoro-5-(3-fluoro-5-(2,2,2-trifluoroethoxy)phenyl)-2,2-dimethyl-2,3-dihydro-1H-inden-1-yl)carbamate] | 1.05 | 28
CC(C)Oc1cc(-c2cc3c(cc2F)[C@H](NC(=O)O[C@@H]2CN4CCC2CC4)C(C)(C)C3)ccc1Cl [Example 111, (S)-quinuclidin-3-yl((R)-5-(4-chloro-3-isopropoxyphenyl)-6-fluoro-2,2-dimethyl-2,3-dihydro-1H-inden-1-yl)carbamate] | 7.13 | 76.2
CC(C)COc1cc(Cl)cc(-c2cc3c(cc2F)[C@H](NC(=O)O[C@@H]2CN4CCC2CC4)C(C)(C)C3)c1 [Example 112, (S)-quinuclidin-3-yl((R)-5-(3-chloro-5-isobutoxyphenyl)-6-fluoro-2,2-dimethyl-2,3-dihydro-1H-inden-1-yl)carbamate] | 1.03 | 10.6
CC(C)Oc1cc(Cl)cc(-c2cc3c(cc2F)[C@H](NC(=O)O[C@@H]2CN4CCC2CC4)C(C)(C)C3)c1 [Example 113, (S)-quinuclidin-3-yl((R)-5-(3-chloro-5-isopropoxyphenyl)-6-fluoro-2,2-dimethyl-2,3-dihydro-1H-inden-1-yl)carbamate] | 0.62 | 11.5
CC1(C)Cc2cc(-c3ccc(OCC(F)(F)F)cc3Cl)c(F)cc2[C@@H]1NC(=O)O[C@@H]1CN2CCC1CC2 [Example 114, (S)-quinuclidin-3-yl((R)-5-(2-chloro-4-(2,2,2-trifluoroethoxy)phenyl)-6-fluoro-2,2-dimethyl-2,3-dihydro-1H-inden-1-yl)carbamate] | 0.2 | 1.7
CCc1ccc(-c2cc3c(cc2C)[C@H](NC(=O)O[C@@H]2CN4CCC2CC4)C(C)(C)C3)cc1 [Example 115, (S)-quinuclidin-3-yl((R)-5-(4-ethylphenyl)-2,2,6-trimethyl-2,3-dihydro-1H-inden-1-yl)carbamate] | 0.43 | 5.09
CCCc1ccc(-c2cc3c(cc2C)[C@H](NC(=O)O[C@@H]2CN4CCC2CC4)C(C)(C)C3)cc1 [Example 116, (S)-quinuclidin-3-yl((R)-2,2,6-trimethyl-5-(4-propylphenyl)-2,3-dihydro-1H-inden-1-yl)carbamate] | 0.31 | 3.82
Cc1cc2c(cc1-c1ccc(C(C)C)cc1)CC(C)(C)[C@H]2NC(=O)O[C@@H]1CN2CCC1CC2 [Example 117, (S)-quinuclidin-3-yl((R)-5-(4-isopropylphenyl)-2,2,6-trimethyl-2,3-dihydro-1H-inden-1-yl)carbamate] | 0.47 | 4.42

Reference: patent publication US20240262819A1, “NOVEL COMPOUNDS HAVING INHIBITORY ACTIVITY AGAINST GLUCOSYLCERAMIDE SYNTHASE OR PHARMACEUTICALLY ACCEPTABLE SALT THEREOF, PROCESSES FOR PREPARING THE SAME, AND PHARMACEUTICAL COMPOSITIONS COMPRISING THE SAME” (YUHAN CORPORATION, priority 2021, published 2024)
